# Source: patent publication US20150133492A1, “N-desmethyldauricine, A Novel Autophagic Enhancer for Treatment of Cancers and Neurodegenerative Conditions Thereof” (Macau University of Science and Technology, priority 2013, published 2015)
# Tested on: HeLa cells expressing GFP-LC3
# Experiment: GFP-LC3 puncta in the presence of specific inhibitors
# Format: cell-based, human
# Settings: LP-4 10 μM, 4 hours, CC 10 μM, STO-609 25 μM, BM 10 μM
# Method: GFP-LC3 puncta formation was quantified as previously described^15. In brief, HeLa cells expressing GFP-LC3 were treated with N-desmethyldauricine (LP-4, 10 μM) in the presence of AMPK inhibitor, compound C (CC, 10 μM), CaMKK-β inhibitor, STO-609 (25 μM) or Calcium chelator, BAPTA/AM (BM, 10 μM) for 4 hours. The cells were then fixed in 4% paraformaldehyde for 20 minutes at room temperature and then rinsed with PBS. Slides were mounted with FluorSave™ mounting media (Calbiochem) and examined by fluorescence microscopy. To quantify for autophagy, the percentage of cells with punctate GFP-LC3 fluorescence was calculated by counting the number of the cells with punctate GFP-LC3 fluorescence in GFP-positive cells. A minimum of 150 cells from 3 randomly selected fields was scored.
row,SMILES,N-desmethyldauricine-induced GFP-LC3 puncta formation in presence of inhibitor
1,O=C(O)c1ccc2c3c1cccc3c(=O)n1c3ccccc3nc21 [STO-609],significant reduction
2,c1cc(-c2cnn3cc(-c4ccc(OCCN5CCCCC5)cc4)cnc23)ccn1 [compound C],significant reduction
3,CC(=O)OCOC(=O)CN(CC(=O)OCOC(C)=O)c1ccccc1OCCOc1ccccc1N(CC(=O)OCOC(C)=O)CC(=O)OCOC(C)=O [BAPTA/AM],significant reduction
